According to article PMC4042638 (The Journal of Experimental Medicine, 2014):

Molecular target: Aβ–fibrinogen interaction (Homo sapiens, UniProt P05067)
Test: AlphaLISA
Assay type: binding

Aβ–fibrinogen interaction, sequence (P05067 672-713): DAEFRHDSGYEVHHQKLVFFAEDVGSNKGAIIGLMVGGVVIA

CSc1ccc(/C=C2/C(C)=C(CC(=O)O)c3cc(F)ccc32)cc1 [sulindac sulfide]
Inhibition of the Aβ–fibrinogen interaction in AlphaLISA (in words): no effect
